pEC50: −log10 of the molar value. Marks after values point to notes of the source that are not given here.
How the values were obtained:
p53 Y220C [1] = biological target: T1, p53 Y220C (Homo sapiens, UniProt P04637, P309S/R273H/Y220C); assay: DNA binding test (HTRF): binding of P53Y220C protein to DNA; format: biochemical; details: HTRF, activation of p53 Y220C (aa 94-312) binding to biotin DNA
T1 construct: a truncated mutant containing only amino acids 94-312 of p53; made in house; host or cells: E. coli

p53 Y220C [2] = biological target: T2, p53 Y220C (Homo sapiens, UniProt P04637, Y220C); assay: as above; format: biochemical; details: multiple ratio of EC50 of the compound to the reference compound, DNA binding test
T2 construct: a truncated mutant containing only amino acids 94-312 of p53; made in house; host or cells: E. coli

NUGC-3 cells = assay: NUGC-3 cell proliferation assay (CTG); format: cell-based, human; details: for GI50: 6 days, CTG; for Compound GI50 (nM)/Reference compound GI50 (nM): multiple ratio of GI50 of the compound to the reference compound
Outline: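 GI50 derived by variable-slope regression of percent inhibition (normalized to blank and 0.1% DMSO controls) from CTG luminescence. Compound was given as 10 threefold dilutions, highest final 10 μM, to overnight-seeded NUGC-3 cells (250/well) for 6 days, 37° C, 5% CO2.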

BxPC-3 cells = assay: BxPC-3 cell proliferation test (CTG); format: cell-based; details: Homo sapiens, 144 h, 6 days
Procedure: To detect the inhibitory effects of the aforementioned compounds on the proliferation ability of BxPC-3 cells, 125 BxPC-3 cells (ATCC®CRL-1687) were seeded into a 384-well plate (Corning 3765), 35 μL per well, and placed in a constant temperature incubator at 37° C. and 5% CO2 overnight. Then, 40 nL of the compound was added to the 384-well plate using an Echo 655 Liquid Handler, with a maximum final concentration of 10 μM, 1:3 serial dilution, and in a total of 10 doses. Incubation was performed at 37° C., 5% CO2 for 6 days. The plate was taken out from the incubator and equilibrated at room temperature for 10 minutes. 20 μL of CTG (Promage G7572) was added to each well of the plate according to the platemap. The plate was centrifuged at 1000 rpm for 1 minute. The lysis of cells was induced by mixing on a shaker for 2 minutes. The plate was centrifuged at 1000 rpm for 1 minute. Incubation was performed at room temperature for 10 minutes to stabilize luminescence signals. Luminescence values were recorded by Envision (PerkinElmer 2105-0020). GraphPad 9.0 was used to fit the inhibition rate and compound concentration into a nonlinear regression curve (dose response-variable slope) to calculate GI50, inhibition rate={1−(A−B)/(C−B)}*100%, A=signal value of compound; B=average signal of blank control; C=average signal of negative control (wherein the negative control was 0.1% DMSO).

[3] = Caco-2 cell permeability test; format: in vitro ADME; details: human, pH 7.4, Caco-2, 10 μM; for Papp A→B at 120 min, 10 μM: A to B; for Papp B→A at 120 min, 10 μM: B to A
Procedure: Caco-2 cells (ATCC, Cat. No. HTB-37) were inoculated to a 96-well plate (Corning HTS Transwell, Cat. No. 3391) at 1.25×10^5/cm2, and the culture medium (DMEM+10% FBS+1% Penicillin-Streptomycin Liquid (100×)+1% NEAA) was replaced every 3 to 4 days. The plate was placed in an incubator at 37° C. with 5% CO2 until a confluent cell monolayer was formed after 21 to 28 days. Before the transport experiment, the culture medium was removed from the cell culture plate, and the plate was washed twice with pre-warmed HBSS buffer (10 mM HEPES, pH 7.4), and 100 μL of HBSS buffer was added to each well. After incubation at 37° C. for 30 minutes, the TEER value was measured using a cell resistance meter (Millicell-ERS2) to confirm the integrity and density of the monolayer cells. The HBSS buffer was discarded, the upper plate containing the cell monolayer membrane was transferred to the corresponding receiving plate, 10 mM test compound stock solution was diluted to a concentration of 10 μM with HBSS transport buffer containing 0.5% BSA, and it was added to the apical side (A side) and basolateral side (B side), respectively. Incubation was carried out for 120 min at 37° C., 5% CO2, and 95% relative humidity, and the permeation of the test compound from A side to B side or from B side to A side and the efflux rate of the compound were determined. The test compound and the reference compound were quantified by LC-MS/MS analysis based on the peak area ratio of analyte/internal standard. The apparent permeability coefficient Papp (cm/s) was calculated using the following formula:
[formula] • wherein, dCr/dt represented the functional relation between cumulative concentration of compound in receptor compartment and time; V represented the volume of solution in receptor compartment (0.1 mL at apical side, and 0.25 mL at basolateral side); A represented the transport surface area, i.e., the monolayer cell area was 0.0804 cm^2; CO represented the initial concentration of compound in donor compartment.
The efflux ratio was calculated using the following formula: […]
The percent recovery was calculated using the following formula:
[formula] [formula] • wherein, Vd represented the volume of donor compartment (0.1 mL on the apical side and 0.25 mL on the basolateral side); C and Cr represented the final concentrations of the transported compound in the donor and receptor compartment, respectively; Cc represented the compound concentration in cell lysate; Vc represented the volume of insert well (which was 0.1 mL in this experiment).

SMILES | pEC50 (p53 Y220C [1]) | Compound EC50 (nM)/Reference compound EC50 (nM) (p53 Y220C [2]) | GI50 (NUGC-3 cells; Homo sapiens, NUGC-3, 144 h) [nM] | Compound GI50 (nM)/Reference compound GI50 (nM) (NUGC-3 cells) | GI50 (BxPC-3 cells) [nM] | efflux ratio at 120 min, 10 μM [3] | Papp A→B at 120 min, 10 μM [3] [×10⁻⁶ cm/s] | Papp B→A at 120 min, 10 μM [3] [×10⁻⁶ cm/s] | GI50 (NUGC-3 cells) [nM]
CNC(=O)c1ccc(NCC#Cc2nc3c(NC4CCS(=O)(=O)CC4)cccn3c2CC(F)(F)F)c(OC)c1 [Compound 10] | 6.30 to 7.00 | C (C: EC50 of the compound≥3*EC50 of the reference compound) | 1000 to 5000 | C (C: GI50 of the compound ≥ 3 * GI50 of the reference compound) | 1000 to 5000 |  |  |  | 
COc1cc(C(=O)N(C)C)ccc1NCC#Cc1nc2c(NC3CC[C@@H](N4CC5(COC5)C4)C[C@@H]3F)cccn2c1CC(F)(F)F (stereo partly drawn) [Compound 47] |  | B (B: EC50 of the reference compound<EC50 of the compound≤3.0*EC50 of the reference compound) |  | C (C: GI50 of the compound ≥ 3 * GI50 of the reference compound) |  | 1.52 | 3.97 | 6.04 | 
CNC(=O)c1ccc(NCC#Cc2nc3c(NC4CCC(N5CCOCC5)C[C@@H]4F)cccn3c2CC(F)(F)F)c(OC)c1 (stereo partly drawn) [Compound 44] | > 7.00 | B (B: EC50 of the reference compound<EC50 of the compound≤3.0*EC50 of the reference compound) |  | C (C: GI50 of the compound ≥ 3 * GI50 of the reference compound) |  | 1.79 | 3.54 | 6.34 | 
CNC(=O)c1ccc(NCC#Cc2nc3c(N[C@H]4CC[C@H](N5CC6(COC6)C5)CC4)cccn3c2CC(F)(F)F)c(OC)c1 [Compound 9] | 6.30 to 7.00 | B (B: EC50 of the reference compound<EC50 of the compound≤3.0*EC50 of the reference compound) | < 1000 | B (B: GI50 of the reference compound < GI50 of the compound ≤ 3.0 * GI50 of the reference compound) | < 1000 |  |  |  | 
CNC(=O)c1ccc(NCC#Cc2nc3c(NC4CC[C@@H](N5CC6(CCC6)C5)C[C@@H]4F)cccn3c2CC(F)(F)F)c(OC)c1 (stereo partly drawn) [Compound 42] |  | B (B: EC50 of the reference compound<EC50 of the compound≤3.0*EC50 of the reference compound) | < 1000 | B (B: GI50 of the reference compound < GI50 of the compound ≤ 3.0 * GI50 of the reference compound) |  | 1.72 | 2.16 | 3.72 | 
COc1cc(S(C)(=O)=O)ccc1NCC#Cc1nc2c(N[C@@H]3CCN(C)C[C@@H]3F)cccn2c1CC(F)(F)F [Compound 3] | 6.30 to 7.00 | A (A: EC50 of the compound≤EC50 of the reference compound) | < 1000 | B (B: GI50 of the reference compound < GI50 of the compound ≤ 3.0 * GI50 of the reference compound) | < 1000 |  |  |  | 
CNC(=O)c1ccc(NCC#Cc2nc3c(NC4CCOCC4)cccn3c2CC(F)(F)F)c(OC)c1 [Compound 8] | 6.00 to 6.30 | C (C: EC50 of the compound≥3*EC50 of the reference compound) | 1000 to 5000 | C (C: GI50 of the compound ≥ 3 * GI50 of the reference compound) | 1000 to 5000 |  |  |  | 
COc1cc(S(C)(=O)=O)ccc1NCC#Cc1nc2c(NC3CCN(C)CC3)cccn2c1CC(F)(F)F [Compound 4] | 6.30 to 7.00 | A (A: EC50 of the compound≤EC50 of the reference compound) | 1000 to 5000 | B (B: GI50 of the reference compound < GI50 of the compound ≤ 3.0 * GI50 of the reference compound) | < 1000 |  |  |  | 
CNC(=O)c1ccc(NCC#Cc2nc3c(NC4CCC(N(C)[C@@H]5CCOC5)CC4)cccn3c2CC(F)(F)F)c(OC)c1 (stereo partly drawn) [Compound 33] | 6.30 to 7.00 | C (C: EC50 of the compound≥3*EC50 of the reference compound) |  | C (C: GI50 of the compound ≥ 3 * GI50 of the reference compound) |  |  |  |  | 
CNC(=O)c1ccc(NCC#Cc2nc3c(NC4CCN(C)CC4)nccn3c2CC(F)(F)F)c(OC)c1 [Compound 1] | 6.00 to 6.30 | C (C: EC50 of the compound≥3*EC50 of the reference compound) | 1000 to 5000 | C (C: GI50 of the compound ≥ 3 * GI50 of the reference compound) | 1000 to 5000 |  |  |  | 
CCNC(=O)c1ccc(NCC#Cc2nc3c(N[C@@H]4CC[C@@H](N5CC6(COC6)C5)C[C@@H]4F)cccn3c2CC(F)(F)F)c(OC)c1 [Compound 50] | > 7.00 | A (A: EC50 of the compound≤EC50 of the reference compound) |  | C (C: GI50 of the compound ≥ 3 * GI50 of the reference compound) |  |  |  |  | 
COc1cc(S(=N)(=O)C2CC2)ccc1NCC#Cc1cc2c(NC3CCN(C)CC3F)cccc2n1CC(F)(F)F (single isomer, unassigned) [Compound 39c] | > 7.00 | B (B: EC50 of the reference compound<EC50 of the compound≤3.0*EC50 of the reference compound) |  | A (A: GI50 of the compound ≤ GI50 of the reference compound) |  |  |  |  | 
CNC(=O)c1ccc(NCC#Cc2nc3c(NC4CCC(N5CC6(COC6)C5)CC4F)cccn3c2CC(F)(F)F)c(OC)c1 (single isomer, unassigned) [Compound 35-6e] | 6.30 to 7.00 | C (C: EC50 of the compound≥3*EC50 of the reference compound) |  | C (C: GI50 of the compound ≥ 3 * GI50 of the reference compound) |  |  |  |  | ≥ 5000
